Laboratory results reported in ChEMBL document CHEMBL3714738, “Novel indole, indazole and benzimidazole arylamides as p2x3 and/or p2x2/3 antagonists” (2012).

What was measured:
[1] = target: T1, P2X2/P2X3 heterotrimeric receptor (Homo sapiens, UniProt P56373+Q9UBL9); assay: Antagonist activity against human P2X2/3 receptor expressed in CHOK1 cells assessed as inhibition of alpha,beta-meATP-induced calcium response incubated for 20 mins by Fluo-3AM dye based FLIPR assay; format: functional, cell-based, CHO-K1
T1 sequence (Q9UBL9 whole entry): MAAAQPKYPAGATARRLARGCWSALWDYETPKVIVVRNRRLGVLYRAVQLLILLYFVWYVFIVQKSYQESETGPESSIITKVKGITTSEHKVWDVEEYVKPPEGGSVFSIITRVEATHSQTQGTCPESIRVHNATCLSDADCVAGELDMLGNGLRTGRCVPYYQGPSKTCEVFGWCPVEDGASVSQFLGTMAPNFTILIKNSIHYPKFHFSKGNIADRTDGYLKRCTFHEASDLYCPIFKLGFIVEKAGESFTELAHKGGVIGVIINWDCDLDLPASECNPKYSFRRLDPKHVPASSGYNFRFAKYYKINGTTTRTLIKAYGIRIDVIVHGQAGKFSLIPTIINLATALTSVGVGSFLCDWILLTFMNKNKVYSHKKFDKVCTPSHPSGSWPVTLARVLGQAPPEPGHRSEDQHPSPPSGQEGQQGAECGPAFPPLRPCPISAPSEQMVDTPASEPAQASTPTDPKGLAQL
T1 sequence (P56373 whole entry): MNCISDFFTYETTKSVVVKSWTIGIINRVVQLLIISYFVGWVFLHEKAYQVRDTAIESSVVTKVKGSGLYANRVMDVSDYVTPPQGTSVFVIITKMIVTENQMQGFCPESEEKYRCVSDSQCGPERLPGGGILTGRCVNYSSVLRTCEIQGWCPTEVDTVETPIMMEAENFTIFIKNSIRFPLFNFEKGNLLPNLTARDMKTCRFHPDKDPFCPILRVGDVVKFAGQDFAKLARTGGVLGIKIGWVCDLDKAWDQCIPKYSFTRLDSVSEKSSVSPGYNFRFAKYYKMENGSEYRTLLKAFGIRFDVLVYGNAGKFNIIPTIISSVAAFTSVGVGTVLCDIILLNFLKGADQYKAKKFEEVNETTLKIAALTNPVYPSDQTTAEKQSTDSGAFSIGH

P2X purinoceptor 3 = target: T2, P2X purinoceptor 3 (Rattus norvegicus, UniProt P49654); assay: Antagonist activity against rat P2X3 receptor expressed in CHOK1 cells assessed as inhibition of alpha,beta-meATP-induced calcium response incubated for 20 mins by Fluo-3AM dye based FLIPR assay; format: functional, cell-based, CHO-K1
T2 sequence (P49654 whole entry): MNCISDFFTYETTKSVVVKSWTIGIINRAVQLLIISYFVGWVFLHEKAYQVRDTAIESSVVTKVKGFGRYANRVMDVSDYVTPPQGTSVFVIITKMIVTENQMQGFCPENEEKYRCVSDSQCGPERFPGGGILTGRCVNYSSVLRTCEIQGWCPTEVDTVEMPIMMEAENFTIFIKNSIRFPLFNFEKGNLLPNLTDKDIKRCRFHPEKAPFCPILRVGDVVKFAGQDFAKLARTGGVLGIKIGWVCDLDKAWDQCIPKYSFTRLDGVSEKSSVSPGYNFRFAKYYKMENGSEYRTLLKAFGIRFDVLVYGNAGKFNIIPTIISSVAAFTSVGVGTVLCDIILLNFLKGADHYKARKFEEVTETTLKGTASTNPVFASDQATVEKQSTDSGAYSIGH

Compound	Ki [1] [nM]	Ki (P2X purinoceptor 3) [nM]
Cc1ccc(-c2cc(C(=O)N[C@@H](C)CO)cc3c2ccn3-c2ccccc2)nc1	2880	102
Cc1ccc(-c2cc(C(=O)N[C@@H](C)CO)cc3c2cnn3CC(C)C)nc1	7240	288
Cc1ccc(-c2cc(C(=O)NCc3cnc(C)cn3)cc3c2ccn3-c2ccccc2)nc1	457	18.6
